Data published in patent EP0614464B1, “PEPTIDES AND ANTIBODIES FOR TREATMENT OF RHEUMATOID ARTHRITIS” (PEPTIDE THERAPEUTICS LIMITED, priority 1991, dated 1993).
pIC50: −log10 of the molar value. Ends that are not written are not given here. Peptide text beside a SMILES is read from it.

Tests used:
[1] = test system: alternative complement (C3) pathway; test: Inhibition of C3-activation: preventing IgA-α1AT complex from activating the alternative complement pathway, rabbit erythrocyte haemolysis read-out; format: biochemical, human; conditions: for C' minimum: Table 5, minimum concentration needed to prevent C3 activation; for C': minimum concentration of peptide needed to prevent C3 activation
Procedure: Various peptides were tested for their ability to prevent the IgA-α1AT complex from activating the alternative complement (C3) pathway.
The method of measuring the capacity to activate the alternative complement pathway by the non-immune IgA-α1AT complex and the subsequent inhibition of this activation by anti-rheumatic peptides is described below.
This method was based on the method described by Riches and Stanworth, Immunology Letters, 1980, 1, 363,366, with modification to miniaturise it thus allowing the assay to be carried out on microtitre plates.
The initial observation by Platts-Mills and Ishizaka (J Immunol. (1974) 113, 348,358) that low dilutions of fresh normal human serum, from which calcium had been removed by chelation with 10mM EGTA to block the classical complement pathway, caused greater than 90% haemolysis of unsensitised rabbit erythrocytes when incubated at 37°C was employed in this assay.
The non-immune complex IgA-α1AT had been shown in the past to be the only known soluble complex to activate the alternative pathway complement and […] of the rabbit erythrocytes. This inhibition required biologically active complex.
The buffers solutions required in this assay were (a) Total lysis buffer (1% Triton100 in ultra pure water), (b) Alternative pathway complement fixation diluent (APCFD) which was:- • 83 volumes CFD, DH 7.2 (1 oxoid tablet: 100ml UPW) • 10 volumes 0.1M EGTA pH 7.2 • 7 volumes MgCl2 pH 7.2
Blood was obtained by venipuncture from a healthy human individual. The blood was allowed to clot for 1 hour at room temperature and then stored overnight at 4°C. The serum was removed and stored at -70°C in lml aliquots. For use, the serum was defrosted and 100µl of 0.1m EGTA pH 7.2 and 70µl O.lm MgCl2 pH 7.2 was added.
Rabbit red blood cells (RBC) were obtained by venipuncture of a healthy rabbit and collected into 0.1M citrate buffer pH 6.2. The RBC were washed 3 times in citrate buffer and the cells were stored in this buffer which was changed every week. It was possible to store cells in this way for 3 weeks. Peptides
The peptides were synthesised as described in Example 1 and made up in UPW to lmM. They were kept frozen at -70°C prior to use.
This was prepared as previously described in Example 2. It was kept frozen in small aliquots prior to use.
Using a round bottomed welled flexible microtitre plate 100µl neat serum (with added EGTA and MgCl2) was added to the first wells in duplicate. This was double diluted out, with APCFD to give a volume of 50µl well. 8 test wells (+ duplicates) were sufficient. 8 wells were prepared as a positive control - (100µl 1% Triton/UPW). 8 wells were prepared as a negative control - (100µl APCFD (Blank)).
50µl of APCFD was added to the test wells and 50µl of 1% rabbit RBC was added to all wells. The plate was then incubated at 37°C for 30 minutes and then centrifuged for 10 minutes at 2000 rpm.
75µl of the supernatant was carefully removed and plated onto a flat bottom welled microtitre plate. The plates were then read at 410nm interference, 690nm reference. The zero or blank value was calculated as the mean value of negative control wells and using the mean of the positive control wells, the percentage lysis for serum dilutions was calculated. In future assays the serum dilution in which lysis was approx. 80% of Rb RBC was used. This was usually in the range 1:4 - 1:6 dilution (ie. lml serum : 4ml APCFD - 6ml APCFD).
A 1:1 dilution of IgA-α1AT complex was made with twice concentrated APCFD. 100µl of this 1:1 dilution of complex was added to the first wells in duplicate. This was double diluted out with APCFD to give 50 µl per well. 50µl of the predetermined dilution of serum (see (i) above) was added to each well. Positive and negative control wells as described in (a) above and wells containing serum alone were used as controls. The plates were incubated at 37°C for 30 minutes and then centrifuged at 2000 rpm for 1 minute. […]

IgA-α1AT complex = test: HPLC analysis of in vitro dissociation of purified IgA-α1AT complex; format: biochemical, human; conditions: for HPLC minimum: Table 5, minimum concentration giving complex : free IgA ratio at 20% (base-line 14%), >500µM = no complex dissociation at highest concentration tested; for HPLC minimum / HPLC % / HPLC: 90 minutes at 37°C; for HPLC %: Table 1; for HPLC % / HPLC: minimum peptide concentration giving complex : free IgA ratio at 20% (base-line 14%)
Procedure: The ability of the peptides of the invention to dissociate purified IgA-α1AT complex in vitro was tested as described below. The anti-rheumatic drug D-penicillamine and other synthetic peptides were used as controls. […] The sample was monitored at wavelength 206nm at a flow rate of 1ml/minute with phosphate buffer (0.1M) pH 7.1. […] They represent the ability of the peptides to dissociate the IgA-α1AT complex in vitro. In these experiments, the base-lines level comprises a complex : free IgA ratio of 14% . The minimum concentration of peptide taken to produce a positive dissociation effect is that which results in a complex: free IgA ratio at 20%. In the results tables, all the peptide values are expressed in µMoles.

[2] = test system: mouse macrophage cell line (PU 518); test: Macrophage inhibition assay: IgA-α1AT complex-stimulated release of lysosomal enzymes; format: cell-based; conditions: concentration needed to prevent 50% release of β-glucoromidase
Procedure: A mouse macrophage cell line (PU 518) was stimulated to release lysosomal enzymes by the addition of purified human IgA-α1AT complex. The degree to which this release was then inhibited by the peptides or other drugs was investigated, with the degree of inhibition being indicative of activity; the concentration of peptide or other test drugs giving 50% inhibition being recorded. Briefly the method was as follows:
25µl of peptide or drug was double diluted in […] + 10% foetal calf serum (FCS) in a sterile tissue culture 96 well plate. 25µl of IgA-α1AT complex in RPMI 1640 +10% FCS at about 0.2mg/ml was then added to all wells. 50µl of cells at a concentration of 2 x 10^6 cells/ml in RPMI 1640 + 10% FCS was then added to each well.
Control wells of cells alone and cells + IgA-α1AT complex were also prepared. The plate was then gently mixed and incubated overnight (16hr) at 37°C in a 4% CO2 atmosphere. Plates were then centrifuged at 1200 rpm for 10 minutes in a bench top centrifuge.
40µl of supernatant was then taken from each well and added to a 96 well polystyrene assay plate, to which was added 40µl of 160mM acetate buffer (pH 4.3) containing 2mM phenolphthalein-β-D-glucuronic acid. To obtain a standard curve, dilutions of phenolphthalein in acetate buffer from 100-5µg/ml were also added to separate wells in the assay plate.
The plates were then incubated at 37°C for 4 hours before 150µl of 0.2M glycine/NaOH buffer (pH 10.6) containing 0.2M NaCl was added to stop the reaction.
Plates were then shaken for 3 minutes before the optical density at 570nm was read on a plate reader, and the amount of β-D-glucuronic acid released from the cells calculated. The concentration of peptide or drug giving 50% inhibition of release was then noted.
The results for the macrophage inhibition assays are expressed as the concentration needed to prevent 50% release of β-glucoromidase.

[3] = test system: alternative complement (C3) pathway; test: Inhibition of C3-activation: preventing IgA-α1AT complex from activating the alternative complement pathway, rabbit erythrocyte haemolysis read-out; format: biochemical, human; conditions: Table 5; minimum concentration needed to prevent C3 activation

## C[C@@H](N)C(=O)N[C@@H](Cc1c[nH]cn1)C(=O)N[C@@H](CS)C(=O)N[C@@H](CCCCN)C(=O)N[C@@H](CCCCN)C(=O)N[C@H](C)C(N)=O [Peptide 210, dAHCKKdAnh2, reference compound] (HELM PEPTIDE1{[dA].H.C.K.K.[dA].[am]}$$$$V2.0)
[1]
  C' minimum: 3.9 µM
IgA-α1AT complex
  HPLC minimum: 10 µM

## NCCCC[C@H](NC(=O)[C@H](CCCCN)NC(=O)[C@H](CS)NC(=O)[C@@H](N)Cc1c[nH]cn1)C(N)=O [Peptide 132, HCKKnh2] (H-HCKK-NH2)
[1]; Table 1
  C': 16 µM
[2]; Table 1, 16hr incubation
  pIC50: 4.22
IgA-α1AT complex
  HPLC %: 10 µM

## HCKKGGE-NH2 [Peptide 152, HCKKGGEnh2]
[1]; Table 4
  C': 125 µM
IgA-α1AT complex; Table 4
  HPLC: 10 µM

## EHCKK-NH2 [Peptide 154, EHCKKnh2]
[1]; Table 3
  C': <2 µM
IgA-α1AT complex; Table 3
  HPLC: 5 µM

## HECKK-NH2 [Peptide 204, HECKKnh2]
[1]; Table 1
  C': <1.95 µM
IgA-α1AT complex
  HPLC %: 10 µM

## HCKKGD-NH2 [Peptide 121, HCKKGDnh2]
[1]; Table 4
  C': 62 µM
IgA-α1AT complex; Table 4
  HPLC: 125 µM

## NIQHCKK-NH2 [Peptide 135, NIQHCKKnh2]
[1]; Table 3
  C': 31 µM
IgA-α1AT complex; Table 3
  HPLC: 10 µM

## CC(=O)N[C@@H](CS)C(=O)O [N-acetyl Cysteine]
[3]
  C' minimum: 4 µM
IgA-α1AT complex
  HPLC minimum: 500 µM
IgA-α1AT complex; comment in words on Tables 3-5, assay not given, fits the HPLC values
  activity: relatively inactive

## EGHCKK-NH2 [Peptide 155, EGHCKKnh2]
[1]; Table 3
  C': <2 µM
[2]; Table 3, 16hr incubation
  pIC50: 4.22
IgA-α1AT complex; Table 3
  HPLC: 5 µM

## C[C@@H](N)C(=O)N[C@@H](Cc1c[nH]cn1)C(=O)N[C@@H](CS)C(=O)N[C@@H](CCCCN)C(=O)N[C@@H](CCCCN)C(N)=O [Peptide 205, dAHCKKnh2] (HELM PEPTIDE1{[dA].H.C.K.K.[am]}$$$$V2.0)
[1]; Table 3
  C': 1.95 µM
IgA-α1AT complex; Table 3
  HPLC: 10 µM

## DHCKK-NH2 [Peptide 113, DHCKKnh2]
[1]; Table 3
  C': 78 µM
[2]; Table 3, 16hr incubation
  pIC50: 4.15
IgA-α1AT complex; Table 3
  HPLC: 10 µM

## DGGHCKK-NH2 [Peptide 118, DGGHCKKnh2]
IgA-α1AT complex; Table 3
  HPLC: 50 µM

## IQHCKK-NH2 [Peptide 134, IQHCKKnh2]
[1]; Table 3
  C': 62 µM
IgA-α1AT complex; Table 3
  HPLC: 10 µM

## HCKKD-NH2 [Peptide 120, HCKKDnh2]
[1]; Table 4
  C': 62 µM
[2]; Table 4, 16hr incubation
  pIC50: 4.60
IgA-α1AT complex; Table 4
  HPLC: 50 µM

## QHCKK-NH2 [Peptide 133, QHCKKnh2]
[1]; Table 3
  C': 31 µM
IgA-α1AT complex; Table 3
  HPLC: 10 µM

## HCCGKnh2 [Peptide 147, reference compound]
[1]
  C' minimum: 32 µM
[2]; Table 5, head prints no unit, b70 says all values of the results tables are in µMoles
  pIC50: 3.60
IgA-α1AT complex
  HPLC minimum: 10 µM
